This passage reports MIC results from US4435583A, “2-Halo-substituted monic acid A useful as antibacterial compounds” (Beecham Group p.l.c., priority 1981, dated 1984).

Holding throughout (assay type): cell-based
Experiment [1] concerns Haemophilus influenzae Q1. Kind of experiment: MIC against human bacteria. Particulars: Haemophilus influenzae, Q1, 18 h, nutrient agar, 5% chocolated horse blood, 37° C. The protocol: (§1) The values were determined by serial dilutions in nutrient agar with 5% chocolated horse blood after incubations for 18 hours at 37° C.
The next experiment relates to E. coli NCTC 10418. Kind of experiment: MIC against human bacteria. Particulars: Escherichia coli, NCTC10418, nutrient agar, 5% chocolated horse blood, 18 hours, 37° C., read-out: MIC. The protocol:
as §1

Experiment [2] has as its system Strep. pyrogenes R80/421-A. Put plainly: MIC against human bacteria. Particulars: nutrient agar, 5% chocolated horse blood, 18 hours, 37° C. The method, then: as §1
In the next experiment the test system is Staph. aureus Oxford. Put plainly: MIC against human bacteria. Particulars: nutrient agar, 5% chocolated horse blood, 18 hours, 37° C. The protocol:
as §1

In the next experiment the test system is P. mirabilis 889. Kind of experiment: MIC against human bacteria. Particulars: Proteus mirabilis, nutrient agar, 5% chocolated horse blood, 18 hours, 37° C., read-out: MIC. The method, then:
as §1

In another experiment the test system is E. coli ESS. Put plainly: MIC against human bacteria. Particulars: nutrient agar, 5% chocolated horse blood, 18 hours, 37° C. The method, then: as §1
The next experiment has as its system Strep. faecalis I. Kind of experiment: MIC against human bacteria. Particulars: Enterococcus faecalis, nutrient agar, 5% chocolated horse blood, 18 hours, 37° C., read-out: MIC. The method, then: as §1
The next experiment concerns Strep. 2788-B. Kind of experiment: MIC against human bacteria. Particulars: nutrient agar, 5% chocolated horse blood, 18 hours, 37° C. The protocol:
as §1

The test system of a further experiment is Past. multocida 1633. Put plainly: MIC against human bacteria. Particulars: nutrient agar, 5% chocolated horse blood, 18 hours, 37° C. The protocol:
as §1

A further experiment concerns Strep. 641848-C. Put plainly: MIC against human bacteria. Particulars: nutrient agar, 5% chocolated horse blood, 18 hours, 37° C. The protocol: as §1
In experiment [3] the test system is Ps. aeruginosa NCTC 10662. Put plainly: MIC against human bacteria. Particulars: Pseudomonas aeruginosa, NCTC10662, nutrient agar, 5% chocolated horse blood, 18 hours, 37° C., read-out: MIC. The method, then: as §1
A further experiment deals with Strep. pneumoniae CN33. Kind of experiment: MIC against human bacteria. Particulars: nutrient agar, 5% chocolated horse blood, 18 hours, 37° C. The method, then:
as §1

Another experiment relates to Staph. aureus W2827. Put plainly: MIC against human bacteria. Particulars: nutrient agar, 5% chocolated horse blood, 18 hours, 37° C. The protocol: as §1
Another experiment has as its system Staph. aureus Russell. Put plainly: MIC against human bacteria. Particulars: nutrient agar, 5% chocolated horse blood, 18 hours, 37° C. The method, then: as §1
Experiment [4] deals with Haemophilus influenzae Wy21. Kind of experiment: MIC against human bacteria. Particulars: Haemophilus influenzae, WY21, 18 h, nutrient agar, 5% chocolated horse blood, 37° C. The protocol: as §1
The test system of a further experiment is Bacillus subtilis 6633. Kind of experiment: MIC against human bacteria. Particulars: nutrient agar, 5% chocolated horse blood, 18 hours, 37° C. The protocol: as §1
The next experiment relates to M. hyorhinis ATCC 23234. Put plainly: In vitro anti-mycoplasmal MIC. Particulars: Mesomycoplasma hyorhinis, ATCC23234, 144 h, Friis broth, 0.9% agarose, 6 days, 37° C.
The next experiment concerns M. pneumoniae ATCC 15492. Kind of experiment: In vitro anti-mycoplasmal MIC. Particulars: Mycoplasmoides pneumoniae, ATCC15492, 144 h, Friis broth, 0.9% agarose, 6 days, 37° C., read-out: MIC.
For the next experiment, the system named is M. suipneumoniae HK(2). Kind of experiment: In vitro anti-mycoplasmal MIC. Particulars: Friis broth, 0.9% agarose, 6 days, 37° C.
The test system of a further experiment is M. dispar NCTC 10125. Kind of experiment: In vitro anti-mycoplasmal MIC. Particulars: 144 h, Friis broth, 0.9% agarose, 6 days, 37° C.

Values after ≈ are worked out from the molar mass of the structure shown.

On to `CCOC(=O)C(F)=C(C)CC1OCC(CC2OC2C(C)C(C)O)C(O)C1O` [Example 1, Ethyl-4-[5S-(2S,3S-epoxy-5S-hydroxy-4S-methylhexyl)-3R, 4R-dihydroxytetrahydropyran-2S-yl]-2-fluoro-3-methylbut-2(Z)-enoate], for which the MIC in [1] was 0.1 µg/mL (≈ 0.256 µM); in the experiment on E. coli NCTC 10418 it was above 100 µg/mL; in experiment [2] it was 1.0 µg/mL (≈ 2.56 µM); against Staph. aureus Oxford, 1.0 µg/mL (≈ 2.56 µM); with P. mirabilis 889, above 100 µg/mL; against E. coli ESS, 5.0 µg/mL (≈ 12.8 µM). Further, the MIC with Strep. faecalis I was above 100 µg/mL; in the experiment with Strep. 2788-B, 10.0 µg/mL (≈ 25.6 µM); with Past. multocida 1633 it was 1.0 µg/mL (≈ 2.56 µM); in the experiment on Strep. 641848-C, 5.0 µg/mL (≈ 12.8 µM); in experiment [3], above 100 µg/mL; against Strep. pneumoniae CN33, 2.5 µg/mL (≈ 6.4 µM). Moreover, the MIC against Staph. aureus W2827 turned out to be 1.0 µg/mL (≈ 2.56 µM); with Staph. aureus Russell, 1.0 µg/mL (≈ 2.56 µM); in [4], 0.25 µg/mL (≈ 0.64 µM); against Bacillus subtilis 6633 it was 2.5 µg/mL (≈ 6.4 µM); in the experiment on M. hyorhinis ATCC 23234 it was 0.25 µg/mL (≈ 0.64 µM); with M. pneumoniae ATCC 15492, 5 µg/mL (≈ 12.8 µM). Further, the MIC against M. suipneumoniae HK(2) was found to be 0.5 µg/mL (≈ 1.28 µM); against M. dispar NCTC 10125, 0.1 µg/mL (≈ 0.256 µM).
